This is an account of results in patent publication US12459922B2 (Gilead Sciences, Inc., priority 2022, dated 2025).

The structures appear in SMILES notation.

One assay has as its system endogenous cellular STAT1 (phosphorylated at Tyr701) in NCI-H1373 cells. Nature of the assay: Phospho-STAT1 (Tyr701) LANCE Ultra TR-FRET Detection Assay. The format is cell-based. The following applies: 48 hours, phospho-STAT1 (Tyr701) induction, read-out: NH1373 pSTAT1 EC50. The method, then: Phospho-STAT1 (Tyr701 LANCE Ultra TR-FRET Detection Assay
d. LANCE Ultra phospho-STAT1 (Tyr701) kits are designed for the detection of phosphorylated STAT1 in cell lysates using a simple, homogeneous LANCE Ultra sandwich assay (Cat. #TRF4028M). This assay is intended for assessing compound induction of endogenous levels of cellular STAT1 (phosphorylated at Tyr701) in NCI-H1373 cells. The NCI-H1373 cells are cultured in RPMI 1640 media containing 10% heat inactivated FBS, GlutaMAX, 1% Penicillin-Streptomycin. An Echo acoustic liquid handler is used to transfer 60 nanoliters of compound dilutions using the Echo Qualified, 384-well polypropylene microplate clear flat bottom source plates into a Greiner (#781080) cell culture microplate. NCI-H1373 cells are seeded into these compound-spotted culture plates at 30,000 cells/well in a 60 uL volume in growth media. The plates are incubated in a 5% CO2 humidified incubator at 37° C. for 48 hours. […] After spinning the plate down at 300 rpm for 1 min, the plate is read on an EnVision plate reader set up for Eu3+ Cryptate and fluorescence emission is measured at two different wavelengths (665 nm and 620 nm). The HTRF ratio is then calculated […] for each well to determine the amount of pSTAT1 in the cell lysate, and the data is then normalized to 10 uM GS-1154611 positive and DMSO negative controls.
The term EC50 denotes the concentration at which the effect is half-maximal. Take `C[C@@H](CCCn1ccc2cc(-c3ncc(C(F)(F)F)c(N)n3)c(F)cc2c1=O)Nc1cn[nH]c(=O)c1C(F)(F)F` [Example 100, 6-[4-amino-5-(trifluoromethyl)pyrimidin-2-yl]-7-fluoro-2-[(4S)-4-[[6-oxo-5-(trifluoromethyl)-1H-pyridazin-4-yl]amino]pentyl]isoquinolin-1-one]: the EC50 was 4.35 nM.

The same assay, now with this note: Homo sapiens, NCI-H1373, 48 h, phospho-STAT1 (Tyr701) induction, read-out: NH1373 pSTAT1 EC50.
Turning to `C[C@@H](CCCn1ccc2cc(-c3ccc(C(F)(F)F)c(N)n3)c(F)cc2c1=O)Nc1cn[nH]c(=O)c1C(F)(F)F` [Example 213], the EC50 amounted to 11.5 nM.

Consider `C[C@@H](CCCn1ccc2cc(-c3ncc(C#N)c(N)n3)c(F)c(F)c2c1=O)Nc1cn[nH]c(=O)c1C(F)(F)F` [Example 110, 4-amino-2-[7,8-difluoro-1-oxo-2-[(4S)-4-[[6-oxo-5-(trifluoromethyl)-1H-pyridazin-4-yl]amino]pentyl]-6-isoquinolyl]pyrimidine-5-carbonitrile], for which the concentration giving a half-maximal response (EC50) came out at 13.4 nM.

In the case of `CN(C)C[C@@H](CCCn1ccc2cc(-c3ncc(C(F)(F)F)cn3)c(F)cc2c1=O)Nc1cn[nH]c(=O)c1C(F)(F)F` [Example 473, 2-[(4R)-5-(dimethylamino)-4-[[6-oxo-5-(trifluoromethyl)-1H-pyridazin-4-yl]amino]pentyl]-7-fluoro-6-[5-(trifluoromethyl)pyrimidin-2-yl]isoquinolin-1-one], the EC50 amounted to 969 nM.

As to `O=c1[nH]ncc(N[C@H]2CCC[C@@H]2CCn2ccc3cc(-c4ncc(C(F)(F)F)cn4)c(F)cc3c2=O)c1C(F)(F)F` [Example 179, 7-fluoro-2-(2-((1R,2S)-2-((6-oxo-5-(trifluoromethyl)-1,6-dihydropyridazin-4-yl)amino)cyclopentyl)ethyl)-6-(5-(trifluoromethyl)pyrimidin-2-yl)isoquinolin-1(2H)-one], the EC50 came to 4.03 nM.

Take `C[C@@H](CCCn1cnc2cc(-c3ncc(OC(F)F)c(N)n3)c(F)cc2c1=O)Nc1cn[nH]c(=O)c1C(F)(F)F` [Example 367, (S)-7-(4-amino-5-(difluoromethoxy)pyrimidin-2-yl)-6-fluoro-3-(4-((6-oxo-5-(trifluoromethyl)-1,6-dihydropyridazin-4-yl)amino)pentyl)quinazolin-4(3H)-one]: the EC50 came out at 51.1 nM.

Take `O=c1[nH]ncc(N[C@H](CCCn2ccc3cc(-c4cnc(N5CCNCC5)cn4)c(F)cc3c2=O)COC(F)F)c1C(F)(F)F` [Example 423, (R)-2-(5-(difluoromethoxy)-4-((6-oxo-5-(trifluoromethyl)-1,6-dihydropyridazin-4-yl)amino)pentyl)-7-fluoro-6-(5-(piperazin-1-yl)pyrazin-2-yl)isoquinolin-1(2H)-one]: the EC50 amounted to 446 nM.

Take `COc1cnc(-c2cc3ncn(CCC[C@H](C)Nc4cn[nH]c(=O)c4C(F)(F)F)c(=O)c3cc2F)nc1N1CC(C#N)C1` [Example 209]: the EC50 worked out at 41.2 nM.

Turning to `COc1cnc(-c2cc3ncn(CCC[C@H](C)Nc4cn[nH]c(=O)c4C(F)(F)F)c(=O)c3cc2F)nc1N1CC(O)C1` [Example 208], the EC50 is 206 nM.

On to `Nc1nc(-c2cc3ncn(CCC[C@H](COC(F)F)Nc4cn[nH]c(=O)c4C(F)(F)F)c(=O)c3cc2F)ncc1Cl` [Example 426, (R)-7-(4-amino-5-chloropyrimidin-2-yl)-3-(5-(difluoromethoxy)-4-((6-oxo-5-(trifluoromethyl)-1,6-dihydropyridazin-4-yl)amino)pentyl)-6-fluoroquinazolin-4(3H)-one], for which the half-maximal effective concentration (EC50) was 14.2 nM.

As to `Nc1nc(-c2cc3ccn(C[C@@H]4CCC[C@H](Nc5cn[nH]c(=O)c5C(F)(F)F)C4)c(=O)c3cc2F)ncc1C(F)F` [Example 231, 6-(4-amino-5-(difluoromethyl)pyrimidin-2-yl)-7-fluoro-2-(((1R,3S)-3-((6-oxo-5-(trifluoromethyl)-1,6-dihydropyridazin-4-yl)amino)cyclohexyl)methyl)isoquinolin-1(2H)-one], the EC50 turned out to be 5.92 nM.

Take `COc1ncc(-c2cc3ccn(C[C@@H]4CCC[C@H](Nc5cn[nH]c(=O)c5C(F)(F)F)C4)c(=O)c3cc2F)nc1N` [Example 263, 6-(6-amino-5-methoxypyrazin-2-yl)-7-fluoro-2-(((1R,3S)-3-((6-oxo-5-(trifluoromethyl)-1,6-dihydropyridazin-4-yl)amino)cyclohexyl)methyl)isoquinolin-1(2H)-one]: the EC50 worked out at 122 nM.

On to `COc1cnc(-c2cc3ccn(CCC[C@H](C)Nc4cn[nH]c(=O)c4C(F)(F)F)c(=O)c3c(F)c2F)nc1N` [Example 109, 6-(4-amino-5-methoxy-pyrimidin-2-yl)-7,8-difluoro-2-[(4S)-4-[[6-oxo-5-(trifluoromethyl)-1H-pyridazin-4-yl]amino]pentyl]isoquinolin-1-one], for which the EC50 is 8.59 nM.

In the case of `O=c1[nH]ncc(N[C@H](CCCn2cnc3cc(-c4ncc(Cl)cn4)c(F)cc3c2=O)C2CC2)c1C(F)(F)F` [Example 470, 7-(5-chloropyrimidin-2-yl)-3-[(4R)-4-cyclopropyl-4-[[6-oxo-5-(trifluoromethyl)-1H-pyridazin-4-yl]amino]butyl]-6-fluoro-quinazolin-4-one], the EC50 was 39.3 nM.

Turning to `C[C@@H](CCCn1ccc2cc(-c3ccc(C(F)(F)F)cn3)ccc2c1=O)Nc1cn[nH]c(=O)c1C(F)(F)F` (single isomer, unassigned) [Example 3], the EC50 stood at 108 nM.

In the case of `C[C@@H](CCCn1ccc2cc(-c3cnc(Cl)c(N)n3)c(F)cc2c1=O)Nc1cn[nH]c(=O)c1C(F)(F)F` [Example 351, (S)-6-(6-amino-5-chloropyrazin-2-yl)-7-fluoro-2-(4-((6-oxo-5-(trifluoromethyl)-1,6-dihydropyridazin-4-yl)amino)pentyl)isoquinolin-1(2H)-one], the EC50 came to 8.39 nM.

Consider `Cc1cc(N)nc(-c2cc3ccn(CCC[C@H](C)Nc4cn[nH]c(=O)c4C(F)(F)F)c(=O)c3cc2F)n1` [Example 315, (S)-6-(4-amino-6-methylpyrimidin-2-yl)-7-fluoro-2-(4-((6-oxo-5-(trifluoromethyl)-1,6-dihydropyridazin-4-yl)amino)pentyl)isoquinolin-1(2H)-one], for which the EC50 stood at 561 nM.

As to `C[C@@H](CCCn1ccc2cc(-c3nccc(N)n3)c(F)cc2c1=O)Nc1cn[nH]c(=O)c1C(F)(F)F` [Example 198, (S)-6-(4-aminopyrimidin-2-yl)-7-fluoro-2-(4-((6-oxo-5-(trifluoromethyl)-1,6-dihydropyridazin-4-yl)amino)pentyl)isoquinolin-1(2H)-one], the EC50 was determined as 276 nM.

Turning to `COc1cnc(-c2cc3ccn(C[C@@H]4CCC[C@H](Nc5cn[nH]c(=O)c5C(F)(F)F)C4)c(=O)c3cc2F)nc1` [Example 492, 7-fluoro-6-(5-methoxypyrimidin-2-yl)-2-[[(1R,3S)-3-[[6-oxo-5-(trifluoromethyl)-1H-pyridazin-4-yl]amino]cyclohexyl]methyl]isoquinolin-1-one], the EC50 turned out to be 7 nM.

As for `C[C@@H](CCCn1cnc2cc(-c3ncc(C(F)F)c(N)n3)c(F)cc2c1=O)Nc1cn[nH]c(=O)c1C(F)(F)F` [Example 108, 7-[4-amino-5-(difluoromethyl)pyrimidin-2-yl]-6-fluoro-3-[(4S)-4-[[6-oxo-5-(trifluoromethyl)-1H-pyridazin-4-yl]amino]pentyl]quinazolin-4-one], the EC50 was determined as 29.4 nM.

Consider `Nc1nc(-c2cc3ccn(CCC[C@H](CO)Nc4cn[nH]c(=O)c4C(F)(F)F)c(=O)c3cc2F)ccc1C(F)(F)F` [Example 167, 6-[6-amino-5-(trifluoromethyl)pyridin-2-yl]-7-fluoro-2-[(4R)-5-hydroxy-4-[[6-oxo-5-(trifluoromethyl)-1H-pyridazin-4-yl]amino]pentyl]isoquinolin-1-one], for which the EC50 is 103 nM.

As for `C[C@@H](CCCn1ccc2cc(-c3nccc(C(F)F)n3)c(F)cc2c1=O)Nc1cn[nH]c(=O)c1C(F)(F)F` [Example 197, (S)-6-(4-(difluoromethyl)pyrimidin-2-yl)-7-fluoro-2-(4-((6-oxo-5-(trifluoromethyl)-1,6-dihydropyridazin-4-yl)amino)pentyl)isoquinolin-1(2H)-one], the EC50 turned out to be 638 nM.

`O=c1[nH]ncc(N[C@H](CCCn2ccc3cc(-c4ncc(Cl)cn4)c(F)c(F)c3c2=O)COC(F)F)c1C(F)(F)F` [Example 392, (R)-6-(5-chloropyrimidin-2-yl)-2-(5-(difluoromethoxy)-4-((6-oxo-5-(trifluoromethyl)-1,6-dihydropyridazin-4-yl)amino)pentyl)-7,8-difluoroisoquinolin-1(2H)-one]: the EC50 came to 1.5 nM.

As for `O=c1[nH]ncc(N[C@H]2CCC[C@@H](Cn3ccc4cc(-c5cnc(OC(F)F)cn5)c(F)cc4c3=O)C2)c1C(F)(F)F` [Example 259, 6-(5-(difluoromethoxy)pyrazin-2-yl)-7-fluoro-2-(((1R,3S)-3-((6-oxo-5-(trifluoromethyl)-1,6-dihydropyridazin-4-yl)amino)cyclohexyl)methyl)isoquinolin-1(2H)-one], the EC50 is 183 nM.
